Laboratory results as given in patent US7008911B2, “Non-surfactant solubilizing agent” (Ecolab, Inc., priority 2002, dated 2006).

How the values were obtained:
Type in all cases: physicochemical
[1] = Alcohol amine added to aqueous PPh solution until single phase observed; conditions: aqueous PPh (34-37 wt % PPh, 39-42 wt % water), room temperature, Formulations B-E
[2] = Alcohol amine added to aqueous EPh solution until single phase observed; conditions: for amount added until a single phase solution was observed: 100 grams total, room temperature
[3] = Alcohol amine added to aqueous benzyl alcohol solution until single phase observed; conditions: aqueous benzyl alcohol (37 wt %, water 42 wt %), room temperature, Formulation F
[4] = listed as of Table 4 with 1 % Eph in H2O, Eph 1 wt % normalized
[5] = listed as of Table 4 with 2.5 % Eph in H2O, Eph 2 wt % normalized
[6] = listed as of Table 4 with 5 % Eph in H2O, Eph 4 wt % normalized
[7] = listed as of Table 4 with 10 % Eph in H2O, Eph 7-8 wt % normalized
[8] = listed as of Table 4 with 15 % Eph in H2O, Eph 10-12 wt % normalized
[9] = listed as of Table 4 with 20 % Eph in H2O, Eph 14-15 wt % normalized
[10] = listed as of Table 4 with 30 % Eph in H2O, Eph 21-23 wt % normalized
[11] = listed as of Table 4 with 50 % Eph in H2O, Eph 36-40 wt % normalized
[12] = listed as of Table 4 with 75 % Eph in H2O, Eph 58-64 wt % normalized

## CC(C)(N)CO [AMP, 2-amino-2-methyl-1-propanol]
[1]
  alcohol amine at single phase, normalized on total weight %: 21 wt %
[2]; 1 % Eph in H2O
  amount added until a single phase solution was observed: 4.8 Grams
[2]; 2.5 % Eph in H2O
  amount added until a single phase solution was observed: 12.3 Grams
[2]; 5 % Eph in H2O
  amount added until a single phase solution was observed: 21.5 Grams
[2]; 10 % Eph in H2O
  amount added until a single phase solution was observed: 26.8 Grams
[2]; 15 % Eph in H2O
  amount added until a single phase solution was observed: 28.7 Grams
[2]; 20 % Eph in H2O
  amount added until a single phase solution was observed: 29.2 Grams
[2]; 30 % Eph in H2O
  amount added until a single phase solution was observed: 29 Grams
[2]; 50 % Eph in H2O
  amount added until a single phase solution was observed: 26.7 Grams
[2]; 75 % Eph in H2O
  amount added until a single phase solution was observed: 17.8 Grams
[2]; [4]
  alcohol amine at single phase, normalized to 100 weight % of water, alcohol amine and EPh: 5 wt %
[2]; [5]
  alcohol amine at single phase, normalized to 100 weight % of water, alcohol amine and EPh: 11 wt %
[2]; [6]
  alcohol amine at single phase, normalized to 100 weight % of water, alcohol amine and EPh: 18 wt %
[2]; [7]
  alcohol amine at single phase, normalized to 100 weight % of water, alcohol amine and EPh: 21 wt %
[2]; [8]
  alcohol amine at single phase, normalized to 100 weight % of water, alcohol amine and EPh: 22 wt %
[2]; [9]
  alcohol amine at single phase, normalized to 100 weight % of water, alcohol amine and EPh: 23 wt %
[2]; [10]
  alcohol amine at single phase, normalized to 100 weight % of water, alcohol amine and EPh: 23 wt %
[2]; [11]
  alcohol amine at single phase, normalized to 100 weight % of water, alcohol amine and EPh: 22 wt %
[2]; [12]
  alcohol amine at single phase, normalized to 100 weight % of water, alcohol amine and EPh: 15 wt %

## NCCO [MEA, monoethanolamine]
[1]
  alcohol amine at single phase, normalized on total weight %: 25 wt %
[2]; 1 % Eph in H2O
  amount added until a single phase solution was observed: 2.3 Grams
[2]; 2.5 % Eph in H2O
  amount added until a single phase solution was observed: 12.7 Grams
[2]; 5 % Eph in H2O
  amount added until a single phase solution was observed: 26.9 Grams
[2]; 10 % Eph in H2O
  amount added until a single phase solution was observed: 40.5 Grams
[2]; 15 % Eph in H2O
  amount added until a single phase solution was observed: 45.4 Grams
[2]; 20 % Eph in H2O
  amount added until a single phase solution was observed: 44 Grams
[2]; 30 % Eph in H2O
  amount added until a single phase solution was observed: 40 Grams
[2]; 50 % Eph in H2O
  amount added until a single phase solution was observed: 34 Grams
[2]; 75 % Eph in H2O
  amount added until a single phase solution was observed: 26.1 Grams
[2]; [4]
  alcohol amine at single phase, normalized to 100 weight % of water, alcohol amine and EPh: 2 wt %
[2]; [5]
  alcohol amine at single phase, normalized to 100 weight % of water, alcohol amine and EPh: 11 wt %
[2]; [6]
  alcohol amine at single phase, normalized to 100 weight % of water, alcohol amine and EPh: 21 wt %
[2]; [7]
  alcohol amine at single phase, normalized to 100 weight % of water, alcohol amine and EPh: 29 wt %
[2]; [8]
  alcohol amine at single phase, normalized to 100 weight % of water, alcohol amine and EPh: 32 wt %
[2]; [9]
  alcohol amine at single phase, normalized to 100 weight % of water, alcohol amine and EPh: 30 wt %
[2]; [10]
  alcohol amine at single phase, normalized to 100 weight % of water, alcohol amine and EPh: 29 wt %
[2]; [11]
  alcohol amine at single phase, normalized to 100 weight % of water, alcohol amine and EPh: 26 wt %
[2]; [12]
  alcohol amine at single phase, normalized to 100 weight % of water, alcohol amine and EPh: 20 wt %

## CC(O)CN (stereo not shown) [MIPA, monoisopropanolamine]
[3]
  alcohol amine at single phase, normalized on total weight %: 21 wt %
[1]
  alcohol amine at single phase, normalized on total weight %: 21 wt %
[2]; 1 % Eph in H2O
  amount added until a single phase solution was observed: 3.5 Grams
[2]; 2.5 % Eph in H2O
  amount added until a single phase solution was observed: 16 Grams
[2]; 5 % Eph in H2O
  amount added until a single phase solution was observed: 26.8 Grams
[2]; 10 % Eph in H2O
  amount added until a single phase solution was observed: 32.2 Grams
[2]; 15 % Eph in H2O
  amount added until a single phase solution was observed: 33.5 Grams
[2]; 20 % Eph in H2O
  amount added until a single phase solution was observed: 32.9 Grams
[2]; 30 % Eph in H2O
  amount added until a single phase solution was observed: 31.1 Grams
[2]; 50 % Eph in H2O
  amount added until a single phase solution was observed: 26 Grams
[2]; 75 % Eph in H2O
  amount added until a single phase solution was observed: 17.5 Grams
[2]; [4]
  alcohol amine at single phase, normalized to 100 weight % of water, alcohol amine and EPh: 3 wt %
[2]; [5]
  alcohol amine at single phase, normalized to 100 weight % of water, alcohol amine and EPh: 14 wt %
[2]; [6]
  alcohol amine at single phase, normalized to 100 weight % of water, alcohol amine and EPh: 21 wt %
[2]; [7]
  alcohol amine at single phase, normalized to 100 weight % of water, alcohol amine and EPh: 24 wt %
[2]; [8]
  alcohol amine at single phase, normalized to 100 weight % of water, alcohol amine and EPh: 25 wt %
[2]; [9]
  alcohol amine at single phase, normalized to 100 weight % of water, alcohol amine and EPh: 25 wt %
[2]; [10]
  alcohol amine at single phase, normalized to 100 weight % of water, alcohol amine and EPh: 24 wt %
[2]; [11]
  alcohol amine at single phase, normalized to 100 weight % of water, alcohol amine and EPh: 20 wt %
[2]; [12]
  alcohol amine at single phase, normalized to 100 weight % of water, alcohol amine and EPh: 15 wt %
